Measurements reported in patent publication US8420670B2 (Abbott Laboratories, priority 2007, dated 2013).
Where a name gives a salt, the structure may show the parent alone.

How the values were obtained:
[1] = molecular target: T1, Human GlyT1c (Homo sapiens, UniProt P48067); assay: Glycine uptake in recombinant hGlyT1 expressing cells; type: cell-based; details: hGlyT1c_5_CHO cells; [3H]-glycine uptake, 60-120 min
T1 construct: expressed in transfected cells; host or cells: CHO (hGlyT1c_5_CHO clone)
T1 sequence (P48067 1-706): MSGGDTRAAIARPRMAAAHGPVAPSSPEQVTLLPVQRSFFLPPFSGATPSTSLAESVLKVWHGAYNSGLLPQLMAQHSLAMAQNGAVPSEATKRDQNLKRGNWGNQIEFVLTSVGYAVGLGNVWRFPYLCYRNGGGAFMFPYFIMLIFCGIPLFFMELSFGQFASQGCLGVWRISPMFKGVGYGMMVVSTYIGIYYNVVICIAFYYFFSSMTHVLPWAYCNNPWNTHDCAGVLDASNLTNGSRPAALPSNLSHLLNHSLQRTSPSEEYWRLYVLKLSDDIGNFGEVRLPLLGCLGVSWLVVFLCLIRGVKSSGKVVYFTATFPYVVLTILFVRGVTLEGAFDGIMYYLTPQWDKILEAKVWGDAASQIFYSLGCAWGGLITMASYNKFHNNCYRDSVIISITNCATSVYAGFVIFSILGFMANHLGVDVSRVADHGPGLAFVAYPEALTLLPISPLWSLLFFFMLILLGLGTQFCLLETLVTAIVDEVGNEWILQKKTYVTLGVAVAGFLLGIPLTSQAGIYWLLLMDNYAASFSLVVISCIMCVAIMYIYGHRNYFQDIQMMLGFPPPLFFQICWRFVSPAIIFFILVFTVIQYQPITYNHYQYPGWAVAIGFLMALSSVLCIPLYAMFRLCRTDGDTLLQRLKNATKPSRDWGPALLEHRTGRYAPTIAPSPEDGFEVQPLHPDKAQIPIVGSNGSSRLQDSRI
Protocol: 1. Glycine Uptake in Recombinant hGlyT1 Expressing Cells:
Human GlyT1c expressing recombinant hGlyT1c—5_CHO cells were plated at 20,000 cells per well in 96 well Cytostar-T scintillation microplates (Amersham Biosciences) and cultured to sub-confluency for 24 h. For glycine uptake assays the culture medium was aspirated and the cells were washed once with 100 μl HBSS (Gibco BRL, #14025-050) with 5 mM L-Alanine (Merck #1007). 80 μl HBSS buffer were added, followed by 10 μl inhibitor or vehicle (10% DMSO) and 10 μl [^3H]-glycine (TRK71, Amersham Biosciences) to a final concentration of […] for initiation of glycine uptake. The plates were placed in a Wallac Microbeta (PerkinElmer) and continuously counted by solid phase scintillation spectrometry during up to 3 hours. Nonspecific uptake was determined in the presence of 10 μM Org24598. IC50 calculations were made by four-parametric logistic nonlinear regression analysis (GraphPad Prism) using determinations within the range of linear increase of [^3H]-glycine incorporation between 60 and 120 min.

[2] = molecular target: T2, human GlyT1c transporter (Homo sapiens, UniProt P48067); assay: [3H]-(R)-NPTS radioligand binding assay using recombinant hGlyT1 expressing cell membranes; details: 0.5 nM [3H]-(R)-NPTS, apparent Ki via Cheng-Prusoff, read-out: [3H]-(R)-NPTS bindung Ki
T2 construct: expressed in transfected cells; host or cells: recombinant hGlyT1-expressing cells
T2 sequence (P48067 1-706): T1 sequence (P48067 1-706)
Protocol: 2. [^3H]-(R)-NPTS Radioligand Binding Assays using Recombinant hGlyT1 Expressing Cell Membranes:
Radioligand binding to human GlyT1c transporter-expressing membranes was measured in duplicate in a total volume of 200 μl in 96-well plates. To 100 μl of membrane suspension (yielding a final membrane protein concentration of 50 μg/ml) in assay buffer (120 mM NaCl, 2 mM KCl, 10 mM Hepes, 1 mM MgCl2, 1 mM CaCl2, pH 7.5) […] of [^3H]-(R)NPTS (0.5 nM final) were added in assay buffer. For competition experiments 10 μl of buffer or unlabeled compound solution obtained from dilution series of test compounds in DMSO followed. An intermediate 1:10 dilution in assay buffer yielded a final DMSO concentration of 1%. Non-specific binding was determined in the presence of 10 μM Org24598 (or its racemate Org24461) for [^3H]-(R)-NPTS. After incubation at room temperature for 1 h, the incubation mixture was harvested (Tomtec Mach III U Harvester) through 96-well GF/B filter plates (PerkinElmer), presoaked for 1 h with 40 μl per well of 0.1% polyethylene-imine (PEI). After washing twice with ice-cold 50 mM Tris-HCl pH 7.4 buffer, drying and addition of 35 μl scintillator (BetaplateScint, PerkinElmer) per well followed. The radioactivity was determined by liquid scintillation spectrometry in a MicroBeta (PerkinElmer) plate counter.
Data analysis: For binding of [^3H]-(R)-NPTS to cell membranes, the calculation of Kd and Bmax values from the saturation binding assays and the IC50 values from the displacement binding was performed by iterative non-linear regression analysis adapted from the ‘Ligand’ program (Munson and Rodbard, 1980). Radioligand displacement curves in absence or in presence of increasing concentrations of tested compounds were fitted using a one-site fit and the apparent Ki values were calculated from the IC50 values using the Cheng-Prusoff equation (Cheng and Prusoff 1973).

Structure (SMILES) | IC50 [1] [µM] | Ki [2] [µM]
Cc1cc(NCc2ccc(Cl)c(Cl)c2)c2cccc(OCCNS(=O)(=O)CC(C)C)c2n1 [Example 31, 2-Methylpropane-1-sulfonic {2-[4-(3,4-dichlorobenzylamino)-2-methylquinolin-8-yloxy]-ethyl}-amide] | ≤ 0.1 | ≤ 0.01
Cc1cc(NCc2ccc(Cl)c(Cl)c2)c2cccc(N3CCCC3)c2n1 [Example 7, (3,4-Dichlorobenzyl)-(2-methyl-8-pyrrolidin-1-yl-quinolin-4-yl)-amine hydrochloride] | ≤ 1 | ≤ 1
C=CCN1CCCC[C@H]1[C@@H](Nc1cc(C)nc2c(OCCNS(C)(=O)=O)cccc12)c1ccccc1 [Example 35, N-[2-(4-{[(S)—((S)-1-Allylpiperidin-2-yl)-phenylmethyl]-amino}-2-methylquinolin-8-yloxy)ethyl]methanesulfonamide] | ≤ 10 | ≤ 10
Cc1cc(NCc2ccc(Cl)c(Cl)c2)c2cccc(OCCNS(=O)(=O)c3cccnc3)c2n1 [Example 30, Pyridine-3-sulfonic {2-[4-(3,4-dichlorobenzylamino)-2-methylquinolin-8-yloxy]-ethyl}amide] | ≤ 0.1 | ≤ 0.01
Cc1cc(NCc2ccc(Cl)c(Cl)c2)c2cccc(OCCN)c2n1 [Example 20, [8-(2-Aminoethoxy)-2-methylquinolin-4-yl]-(3,4-dichlorobenzyl)-amine dihydrochloride] | ≤ 1 | ≤ 0.01
Cc1cc(NCc2ccc(Cl)c(Cl)c2)c2cccc(OCCNC(=O)c3ccccc3)c2n1 [Example 22] | ≤ 0.1 | ≤ 0.01
CNc1cccc2c(NCc3ccc(Cl)c(Cl)c3)cc(C)nc12 [Example 15, N*4*-(3,4-Dichlorobenzyl)-N*8*-methyl-2-methylquinolin-4,8-diamine] | ≤ 1 | ≤ 0.1
CC(=O)NCCOc1cccc2c(NCc3ccc(Cl)c(Cl)c3)cc(C)nc12 [Example 24, N-{2-[4-(3,4-Dichlorobenzylamino)-2-methylquinolin-8-yloxy]-ethyl}-acetamide] | ≤ 1 | ≤ 0.1
Cc1cc(NCc2ccc(Cl)c(Cl)c2)c2cccc(O)c2n1 [Example 41, 4-(3,4-Dichlorobenzylamino)-2-methylquinolin-8-ol] | ≤ 1 | ≤ 0.1
Cc1cc(NCc2ccc(Cl)cc2Cl)c2cccc(OCCNS(=O)(=O)CC(C)C)c2n1 [Example 39, 2-Methylpropane-1-sulfonic {2-[4-(2,4-dichlorobenzylamino)-2-methylquinolin-8-yloxy]-ethyl}-amide] | ≤ 1 | ≤ 0.1
Cc1cc(NCc2ccc(Cl)c(Cl)c2)c2cccc(OCCNS(=O)(=O)C(F)(F)F)c2n1 [Example 29, N-{2-[4-(3,4-Dichlorobenzylamino)-2-methylquinolin-8-yloxy]-ethyl}-C,C,C-trifluoromethanesulfonamide] | ≤ 0.1 | ≤ 0.1
Cc1cc(NCc2ccc(Cl)cc2Cl)c2cccc(OCCN)c2n1 [Example 36, [8-(2-Aminoethoxy)-2-methylquinolin-4-yl]-(2,4-dichlorobenzyl)-amine] | ≤ 10 | ≤ 0.1
Cc1cc(NCc2ccc(Cl)c(Cl)c2)c2cccc(OCCNC(=O)OC(C)(C)C)c2n1 [Example 19, {2-[4-(3,4-Dichlorobenzylamino)-2-methylquinolin-8-yloxy]-ethyl}-carbamate tert-butyl ester] | ≤ 0.1 | ≤ 0.1

The remaining lines, values ahead:

IC50 [1] [µM] | Ki [2] [µM] | Structure (SMILES)
≤ 10 | ≤ 10 | COc1cccc2c(NC(CNC(C)C)c3ccccc3)cc(C)nc12 (stereo not shown) [Example 79, N*2*-Isopropyl-N*1*-(8-methoxy-2-methylquinolin-4-yl)-1-phenylethane-1,2-diamine]
≤ 0.1 | ≤ 0.1 | CSc1cccc2c(NCc3ccc(Cl)c(Cl)c3)cc(C)nc12 [Example 88, (3,4-Dichlorobenzyl)-(2-methyl-8-methylsulfanylquinolin-4-yl)-amine]
≤ 10 | ≤ 10 | COc1cccc2c(NC(CN3CCOCC3)c3ccccc3)cc(C)nc12 (stereo not shown) [Example 62, (8-Methoxy-2-methylquinolin-4-yl)-(2-morpholin-4-yl-1-phenyl)-ethylamine]
≤ 0.1 | ≤ 0.001 | COc1cccc2c(N[C@H](CN(C)C)c3ccc(Cl)cc3)cc(C)nc12 [Example 76, (S)-1-(4-Chlorophenyl)-N*1*-(8-methoxy-2-methylquinolin-4-yl)-N*2*,N*2*-dimethylethane-1,2-diamine]
≤ 10 | ≤ 10 | COc1cccc2c(NC(CN3CCCC3)c3ccccc3)cc(C)nc12 (stereo not shown) [Example 69, (8-Methoxy-2-methylquinolin-4-yl)-(1-phenyl-2-pyrrolidin-1-ylethyl)-amine]
≤ 1 | ≤ 0.1 | Cc1cc(NCc2ccc(Cl)c(Cl)c2)c2cccc(OCc3ccccc3)c2n1 [Example 46, (8-Benzyloxy-2-methylquinolin-4-yl)-(3,4-dichlorobenzyl)-amine]
≤ 10 | ≤ 10 | COc1cccc2c(NC(CN3CCOCC3)c3ccc(Cl)cc3)cc(C)nc12 (stereo not shown) [Example 65, [1-(4-Chlorophenyl)-2-morpholin-4-yl-ethyl]-(8-methoxy-2-methylquinolin-4-yl)-amine]
≤ 1000 | ≤ 10 | COc1cccc2c(NC(C(N)=O)c3ccccc3)cc(C)nc12 (stereo not shown) [Example 74, 2-(8-Methoxy-2-methylquinolin-4-ylamino)-2-phenylacetamide]
≤ 10 | ≤ 10 | Cc1cc(NCc2cccc(Cl)c2Cl)c2ccccc2n1 [Example 91, (2,3-Dichloro-benzyl)-(2-methylquinolin-4-yl)-amine]
≤ 0.1 | ≤ 0.1 | Cc1cc(NCc2ccc(Cl)c(Cl)c2)c2cccc(OC(C)C)c2n1 [Example 42, (3,4-Dichlorobenzyl)-(8-isopropoxy-2-methylquinolin-4-yl)-amine hydrochloride]
≤ 1 | ≤ 0.1 | COc1cccc2c(NC(CN(C)C)c3ccccc3)cc(C)nc12 (stereo not shown) [Example 71, N*1*-(8-Methoxy-2-methylquinolin-4-yl)-N*2*,N*2*-dimethyl-1-phenylethane-1,2-diamine]
≤ 10 | ≤ 1 | COc1cccc2c(NC(c3ccc(Cl)cc3)C3CC3)cc(C)nc12 (stereo not shown) [Example 72, [(4-Chlorophenyl)-cyclopropylmethyl]-(8-methoxy-2-methylquinolin-4-yl)-amine]
≤ 1 | ≤ 0.1 | Cc1cc(NCc2ccc(Cl)c(Cl)c2)c2cccc(OCCN(C)C)c2n1 [Example 50, (3,4-Dichlorobenzyl)-[8-(2-dimethylamino-ethoxy)-2-methylquinolin-4-yl]-amine dihydrochloride]
